From ChEMBL document CHEMBL5104190, “Design, Synthesis, Biological Activity, and Structural Analysis of Novel Des-C-Ring and Aromatic-D-Ring Analogues of 1α,25-Dihydroxyvitamin D3” (J Med Chem, 2022)
Calls of active or inactive are those of the source. No cut-off for these calls is given here.

Experiments:
[1] = molecular target: T1, Vitamin D3 receptor (Homo sapiens, UniProt P11473); test: Competitive binding affinity to His-tagged human VDR LBD (156 to 453 residues) expressed in Escherichia coli […] (DE3) cells in presence of 1,25D3 by fluorescent polarization assay
T1 sequence (P11473 whole entry): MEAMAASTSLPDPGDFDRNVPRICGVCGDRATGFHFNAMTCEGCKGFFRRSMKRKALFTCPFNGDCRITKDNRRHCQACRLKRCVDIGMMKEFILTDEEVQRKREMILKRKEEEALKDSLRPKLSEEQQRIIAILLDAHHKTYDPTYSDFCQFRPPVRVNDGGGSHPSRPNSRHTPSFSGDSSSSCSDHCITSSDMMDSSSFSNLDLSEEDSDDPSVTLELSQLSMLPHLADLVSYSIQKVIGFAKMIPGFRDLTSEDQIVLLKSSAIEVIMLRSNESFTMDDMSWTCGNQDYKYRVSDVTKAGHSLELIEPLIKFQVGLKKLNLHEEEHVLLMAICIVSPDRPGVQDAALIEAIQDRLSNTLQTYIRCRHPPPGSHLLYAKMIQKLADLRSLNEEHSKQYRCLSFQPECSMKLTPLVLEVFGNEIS

[2] = system: MCF7; test: Increase in E-cadherin expression level in human MCF7 cells at 0.1 to 100 nM measured for 48 hrs by Western blot analysis; format: functional, cell-based; details: dose 0.1-100 nM
[3] = molecular target: T2, Vitamin D3 receptor (Homo sapiens) (UniProt P11473); test: Competitive binding affinity to His-tagged human VDR LBD (156 to 453 residues) expressed in Escherichia coli […] (DE3) cells at 0.1 to 100 nM in presence of 1,25D3 by fluorescent polarization assay relative to (1R,3S)-5-(2-((1R,3aS,7aR)-1-((R)-6-hydroxy-6-methylheptan-2-yl)-7a-methyloctahydro-4H-inden-4-ylidene)ethylidene)-4-methylenecyclohexane-1,3-diol; details: dose 0.1-100 nM
T2 sequence (whole entry): T1 sequence (P11473 whole entry)

[4] = molecular target: T3, CYP24A1 (Homo sapiens, UniProt Q07973); test: Induction of CYP24A1 (unknown orgin) transcriptional activity trasfected in human MCF7 cells at 0.1 to 1000 nM incuabted for 48 hrs by luciferase reporter gene assay relative to (1R,3S)-5-(2-((1R,3aS,7aR)-1-((R)-6-hydroxy-6-methylheptan-2-yl)-7a-methyloctahydro-4H-inden-4-ylidene)ethylidene)-4-methylenecyclohexane-1,3-diol; format: ADME, cell-based; details: MCF7 cells transfected with CYP24A1 luciferase reporter, dose 0.1-1000 nM
T3 sequence (Q07973 whole entry): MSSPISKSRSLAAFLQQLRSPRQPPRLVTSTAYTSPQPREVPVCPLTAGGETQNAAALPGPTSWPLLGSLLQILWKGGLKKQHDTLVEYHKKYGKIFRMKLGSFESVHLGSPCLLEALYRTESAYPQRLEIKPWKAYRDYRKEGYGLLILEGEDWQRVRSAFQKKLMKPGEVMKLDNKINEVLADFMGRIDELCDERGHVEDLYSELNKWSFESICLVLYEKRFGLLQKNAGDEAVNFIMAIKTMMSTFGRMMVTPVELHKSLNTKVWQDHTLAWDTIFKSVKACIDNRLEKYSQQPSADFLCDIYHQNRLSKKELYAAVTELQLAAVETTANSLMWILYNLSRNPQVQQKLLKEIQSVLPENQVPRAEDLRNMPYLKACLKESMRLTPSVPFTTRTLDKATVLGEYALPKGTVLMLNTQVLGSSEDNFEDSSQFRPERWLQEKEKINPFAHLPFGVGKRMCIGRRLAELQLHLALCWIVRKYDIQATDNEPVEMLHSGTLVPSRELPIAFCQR

Row | SMILES | IC50 [1] [nM] | Activity [2] | Emax [3] [%] | Emax at 48 h [4] [%]
1 | C=C1/C(=C\C=C\c2cc(CCCCCC(C)(C)O)cc(CCCCCC(C)(C)O)c2)C[C@@H](O)C[C@@H]1O | 15.7 | Active | 7.9 | 102
2 | C=C1/C(=C\C=C(/CCCCCC(C)(C)O)c2cccc(CCCCCC(C)(C)O)c2)C[C@@H](O)C[C@@H]1O | 27.3 | Active | 4.5 | 54
